Measurements taken from US20130225671A1, “Methods of Treating Seizure Disorders” (Massachusetts Institute of Technology, priority 2010, published 2013).
“Also recorded” adds a separate entry of the source. Marks after values point to notes of the source that are not given here.

Experiments:
[1] = system: Cytochrome p450 (5 major isoforms); settings: read-out: Cytochrome p450 Inhibition-IC50; cited from earlier work
[2] = system: Rat Collagen-Induced Arthritis; settings: PO, QD×7; cited from earlier work
[3] = system: Rat carrageenan paw edema; settings: PO, once; cited from earlier work
[4] = system: Malme-3M pERK; settings: Malme-3M cells; cited from earlier work
[5] = system: IL-6; settings: human whole blood, TPA-induced; cited from earlier work
[6] = system: 25 receptors; settings: cited from earlier work
[7] = system: MEK; settings: read-out: MEK Enzyme IC50; cited from earlier work
[8] = system: IL-1β; settings: human whole blood, TPA-induced; cited from earlier work
[9] = system: TNF-α; settings: human whole blood, TPA-induced; cited from earlier work
[10] = system: rat adjuvant-induced arthritis; settings: PO, QD×7; cited from earlier work
[11] = system: ~200 other kinases; settings: ~200 other kinases at 1 μM; cited from earlier work
[12] = system: Fmr1 KO mouse; test: Audiogenic seizures (AGS) in Fmr1 KO and WT mice;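 as to all read-outs here: male WT and Fmr1 KO littermates aged P17-25 given a 2 min seizure-provoking stimulus, scored blind to genotype for wild running, clonic and tonic seizures and death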; settings: for AGS incidence: 1 h, vehicle KO about 74%; for incidence of AGS: Example 1, vehicle KO 73%; for incidence of AGS / Clonic seizure incidence / Death incidence / Tonic seizure incidence / WR (wild running) incidence: i.p. 100 mg/kg SL 327 or 30 mg/kg Formula I; for Clonic seizure incidence / Death incidence / Tonic seizure incidence / WR (wild running) incidence: 1 h before stimulus
Description: One hour later, mice were exposed to a seizure-inducing stimulus for 2 minutes, and scored for four stages of AGS: wild running (WR; pronounced, undirected running and thrashing), clonic seizure (violent spasms accompanied by loss of balance), tonic seizure (postural rigidity in limbs), and death [35, 37, 39]. All animals were injected and scored blind to genotype.
AGS: Experiments were performed using male WT and Fmr1 KO littermates (P17-25) as described herein. […] Immediately prior to testing, mice were transferred to a quiet (about <60 dB ambient sound) room for 1 hour. Mice were then transferred to a transparent plastic test chamber and, after 1 minute of habituation, exposed to a 130 dB stimulus (recorded sampling of a modified personal alarm, RADIOSHACK model 49-1010) for about 2 minutes. Each testing session contained mice from both genotype and treatment groups. For each group, incidence of the following stages of AGS was calculated: wild running (WR; pronounced, undirected running and thRashing), clonic seizure (violent spasms accompanied by loss of balance), tonic seizure (postural rigidity in limbs), and death. All aspects of the experiments were performed blind to genotype.
For each mouse, four stages of increasing AGS severity were scored: wild running, clonic seizure, tonic seizure, or death[16].

[13] = system: Ras; test: Ras activation assay (Ras-GTP pull-down) in hippocampal slices; assay type: cell-based, mouse
Description: Ras activation assay: Slices (4-6 per animal) were prepared exactly as for metabolic labeling, and Ras-GTP isolated using the Active Ras Pull-Down and Detection kit (PIERCE) according to manufacturer's instructions.
Active (GTP-bound) Ras was isolated from homogenized slices using a GST-pull down assay, and compared to total Ras.

[14] = system: ERK1/2; test: ERK1/2 activation (phosphorylation) in hippocampal slices, immunoblotting; assay type: cell-based, mouse; settings: for ERK1/2 activation (phosphorylation; WT veh = 100%): 1 hour
[15] = system: protein synthesis in WT and Fmr1 KO hippocampal slices; test: Protein synthesis in hippocampal slices (35S-Met/Cys metabolic labeling); assay type: cell-based, mouse
Description: Dorsal hippocampal slices were prepared from juvenile (postnatal day 25-32) WT and Fmr1 KO mice using the same metabolic labeling procedure described in [35]. Briefly, 500 μm slices were recovered in carbogenating, 32.5° C. ACSF (in mM: NaCl: 124, KCl: 3, NaH2PO4: 1.25, NaHCO3: 26, dextrose: 10, MgCl2: 1, CaCl2: 2, saturated with 95% O2 and 5% CO2), pre-incubated in actinomycin D (ActD, 25 μM) for 30 min to prevent transcription, and protein synthesis measured over 30 minutes via incorporation of a ^35S-labeled methionine/cysteine mix (^35S-Met/Cys).
Group I mGluR activate several signal pathways.
Mice: Fmr1 KO (Jackson Labs) and WT littermates, bred on the C57BL6 or FVB background strains, were group housed and maintained in a 12:12 h light:dark cycle. An In vitro hippocampal slice assay was used herein to recapitulate the exaggerated protein synthesis phenotype seen in the Fmr1 KO[6].
Metabolic labeling: Experiments were performed on male WT and Fmr1 KO mice (postnatal day 25-32), blind to genotype, as described herein. Briefly, 500 μm slices were recovered for 4 h in 32.5° C. […] After labeling, slices were homogenized, and labeled proteins isolated by TCA precipitation. Samples were read with a scintillation counter and also subjected to a protein concentration assay (BIO-RAD). Final data were expressed as counts per minute (CPM) per μg protein, normalized to the ^35S-Met/Cys ACSF used for incubation, and the average incorporation of all samples analyzed in that experiment.

[16] = Fmr1 KO mice, C57BL6, 30 mg/kg Formula I acid i.p.
[17] = Fmr1 KO hippocampal slices, 10 μM Formula I
[18] = Fmr1 KO hippocampal slices, 50 μM Formula I
[19] = WT hippocampal slices, 10 μM Formula I
[20] = WT hippocampal slices, 50 μM Formula I
[21] = Fmr1 KO hippocampal slices, 100 μM Formula I in lactone form (Example 1)
[22] = Fmr1 KO hippocampal slices, 100 μM Formula I in lactone form (Example 1), listed as LOVASTATIN
[23] = WT hippocampal slices, 5 μM U0126

Cn1cnc2c(F)c(Nc3ccc(Br)cc3F)c(C(=O)NOCCO)cc21 [ARRY-162]
IC50 [1]: > 25000 nM | Rat Collagen-Induced Arthritis ED50 [2]: 3 mg/kg | Rat carrageenan paw edema ED50 [3]: ~7 mg/kg | IC50 [4]: 11 nM | IC50 [5]: 21 nM | receptor screen [6]: clean | IC50 [7]: 12 nM | IC50 [8]: 21 nM | IC50 [9]: 23 nM | rat adjuvant-induced arthritis ED50 [10]: 10 mg/kg | Kinase selectivity screen [11]: no activity

CCC(C)C(=O)OC1CC(C)C=C2C=CC(C)C(CCC(O)CC(O)CC(=O)[O-])C21.[Na+] (stereo not drawn) [Formula I acid]
AGS severity (distribution of AGS scores) [12, 16]: attenuates AGS severity | AGS incidence [12, 16]: significantly reduces AGS incidence

CC[C@H](C)C(=O)O[C@H]1C[C@@H](C)C=C2C=C[C@H](C)[C@H](CC[C@@H]3C[C@@H](O)CC(=O)O3)[C@H]21 [Formula I, (1S,3R,7S,8S,8aR)-8-{2-[(2R,4R)-4-hydroxy-6-oxooxan-2-yl]ethyl}-3,7-dimethyl-1,2,3,7,8,8a-hexahydronaphthalen-1-yl-(2S)-2-methylbutanoate]
active (GTP-bound) Ras compared to total Ras (WT veh = 100%) [13, 17]: 89±8% | active (GTP-bound) Ras compared to total Ras (WT veh = 100%) [13, 18]: 61±9% | active (GTP-bound) Ras compared to total Ras (WT veh = 100%) [13, 19]: 87±14% | active (GTP-bound) Ras compared to total Ras (WT veh = 100%) [13, 20]: 61±12% | Ras activation in hippocampal slices (in words) ([13]; hippocampal slices, Formula I acid form, FIGS. 2D and 2E): inhibits Ras activation | ERK1/2 activation (phosphorylation; WT veh = 100%) [14, 17]: 90±6% | ERK1/2 activation (phosphorylation; WT veh = 100%) [14, 18]: 78±5% | ERK1/2 activation (WT vehicle = 100%) [14, 21]: 181±6% | ERK1/2 activation (WT vehicle = 100%) [14, 22]: reduce ERK1/2 activation | ERK1/2 activation (phosphorylation; WT veh = 100%) [14, 19]: 94±8% | ERK1/2 activation (phosphorylation; WT veh = 100%) [14, 20]: 84±5% | ERK1/2 activation (WT vehicle = 100%) ([14]; WT hippocampal slices, 100 μM Formula I in lactone form (Example 1)): 187±6% | ERK1/2 in hippocampal slices (in words) ([14]; hippocampal slices, Formula I acid form, FIGS. 2F and 2G): downregulates ERK1/2 | AGS severity (distribution of AGS scores) [12, 16]: significantly lessens the severity of seizures | AGS incidence [12, 16]: about 28% | AGS severity (distribution of AGS scores) ([12]; Fmr1 KO mice, C57BL6, 30 mg/kg Formula I lactone i.p.): significantly reduces AGS severity | AGS severity (distribution of AGS scores) ([12]; Fmr1 KO mice, C57BL6, 100 mg/kg Formula I acid i.p.): attenuates AGS severity | AGS severity (distribution of AGS scores) ([12]; Fmr1 KO mice, C57BL6, oral, 48 h feeding of 0.1% Formula I chow): significantly reduces AGS severity | incidence of AGS ([12]; Fmr1 KO mice): 21% | AGS severity (distribution of AGS scores) ([12]; Fmr1 KO mice, FVB, 30 mg/kg Formula I i.p., 30 mg/kg): similarly unaffected; also recorded: does not significantly reduce AGS severity | AGS severity (distribution of AGS scores) ([12]; Fmr1 KO mice, FVB, 100 mg/kg Formula I i.p., 100 mg/kg): significantly reduces AGS severity | Clonic seizure incidence ([12]; Fmr1 KO mice): 12%* | Death incidence ([12]; Fmr1 KO mice): 8% | Tonic seizure incidence ([12]; Fmr1 KO mice): 6%* | WR (wild running) incidence ([12]; Fmr1 KO mice): 21%* | Clonic seizure incidence ([12]; WT mice): 8%* | Death incidence ([12]; WT mice): 8% | Tonic seizure incidence ([12]; WT mice): 8% | WR (wild running) incidence ([12]; WT mice): 13%** | protein synthesis (WT veh = 100%) ([15]; Fmr1 KO hippocampal slices, 10 μM Formula I (acid form, Example 2)): 115±7% | protein synthesis (WT vehicle = 100%) [15, 21]: 104±2% | protein synthesis (WT vehicle = 100%) [15, 22]: can correct protein synthesis | protein synthesis (WT veh = 100%) ([15]; WT hippocampal slices, 10 μM Formula I (acid form, Example 2)): 103±4% | protein synthesis (WT veh = 100%) ([15]; WT hippocampal slices, 50 μM Formula I (acid form, Example 2)): 88±5%

N#CC(=C(N)Sc1ccccc1N)C(C#N)=C(N)Sc1ccccc1N [Formula U0126, 1,4-diamino-2,3-dicyano-1,4-bis[2-aminophenylthio]butadiene]
ERK1/2 activation (WT vehicle = 100%) [14, 23]: 15±3% | protein synthesis (WT vehicle = 100%) [15, 23]: 94±6%

Cc1cccc(C#Cc2ccccc2)n1 [MPEP]
protein synthesis (WT vehicle = 100%) ([15]; Fmr1 KO hippocampal slices, 50 μM MPEP, 5 minutes): 95±2% | protein synthesis (WT vehicle = 100%) ([15]; WT hippocampal slices, 50 μM MPEP, 5 minutes): 104±2%

N#C/C(=C(\N)Sc1ccc(N)cc1)c1ccccc1C(F)(F)F [SL 327, alpha-[amino[(4-aminophenyl)thio]methylene]-2-(trifluoromethyl)benzeneacetonitrile]
incidence of AGS ([12]; Fmr1 KO mice): 0% | Clonic seizure incidence ([12]; Fmr1 KO mice): 0%* | Death incidence ([12]; Fmr1 KO mice): 0% | Tonic seizure incidence ([12]; Fmr1 KO mice): 0%* | WR (wild running) incidence ([12]; Fmr1 KO mice): 0%* | Clonic seizure incidence ([12]; WT mice): 0%* | Death incidence ([12]; WT mice): 0% | Tonic seizure incidence ([12]; WT mice): 0% | WR (wild running) incidence ([12]; WT mice): 0%*
